Holding throughout (assay): Test of plant growth inhibiting action on sprouted seeds grown 7 days in a dispersion of wettable powder, visual evaluation
Common to all, as to type: in vivo

One assay concerns Echinochloa crus-galli. The settings on record: 168 h, 20% wettable powder dispersed in water, 25°C, lighted thermostat, visual grade 1-5, read-out: Growth Inhibition, Seed of Plant Echinochloa crus-galli (converted). From the text: (§1) Test Example (Test of Plant Growth Inhibiting Action)
(§2) 50 parts of talc, 25 parts of bentonite, 2 parts of Sorpol-9047 (surface active agent manufactured by Toho Chemical Co., Ltd.) and 3 parts of Sorpol-5039 (same as above) were thoroughly mixed to form a carrier. 50 weight parts of test compound was mixed with 200 weight parts of the carrier to prepare a 20% wettable powder. The wettable powder was dispersed in pure water to adjust the amount thereof to a definite concentration (see Table If to 17). Seeds of Oryza sativa or rice plant, Echinochloa crus-galli (a kind of millet) and Raphanus sativus (a kind of radish) all of which were forcedly sprouted in a separate dish, were put in the dispersion of wettable powder and grown for 7 days in a lighted thermostat at 25°C and the degree of growth was visually evaluated in accordance with the standard set forth below.
(§3) Standard of Evaluation in Growth Inhibition
(§4) • no influence: 1 • about 25% growth inhibition: 2 • about 50% growth inhibition: 3 • about 75% growth inhibition: 4 • about 100% growth inhibition: 5

For another assay, the system named is Oryza sativa. The note with it: 168 h, 20% wettable powder dispersed in water, 25°C, lighted thermostat, visual grade 1-5, read-out: Growth Inhibition, Seed of Plant Oryza sativa (converted).
Source text: as §1, §2, §3, §4

The test system of a further assay is Raphanus sativus. The settings on record: 168 h, 20% wettable powder dispersed in water, 25°C, lighted thermostat, visual grade 1-5, read-out: Growth Inhibition, Seed of Plant Raphanus sativus (converted).
Source text: as §1, §2, §3, §4

For orientation: inhibition means the relative decrease from the control value, in per cent.

SMILES strings stand for the structures.

In the case of `C=C(COc1ccccc1)C(=O)OC` [Compound 4-10, methyl 2-methylene-3-phenoxypropionate], the inhibition at 20 ppm with Echinochloa crus-galli (Concentration 20 ppm) was 100%; with Oryza sativa (Concentration 20 ppm), 75%; in the assay with Raphanus sativus (Concentration 20 ppm) it was 0%. Further, the inhibition at 100 ppm with Echinochloa crus-galli (Concentration 100 ppm), in the assay on Oryza sativa (Concentration 100 ppm) and with Raphanus sativus (Concentration 100 ppm) was 100% each time.

(Values after patent publication EP0117412A1, “Propene derivatives and their use as plant growth inhibitors” (DAICEL CHEMICAL INDUSTRIES, LTD., priority 1983, dated 1984).)
